Experimental data as given in US6818765B1, “Benzene-sulphonamide derivatives and their uses” (Universite de Liege, priority 1999, dated 2004).
pIC50: −log10 of the molar value. Where two headings read alike, the source gives them in different places.

What was measured:
[1] = molecular target: T1, TPτ thromboxan A2 receptors (Rattus norvegicus, UniProt P34978); assay: Rat aorta contraction test (relaxation of aorta precontracted by U-46619); settings: tonus induced by U-46619 (0.03 μM); read-out: IC 50: concentration reducing by 50% the Rat Aorta muscular tonus
T1 construct: Two tests on smooth musculature have allowed to confirm the antagonist potency on the TPτ thromboxan A2 receptors; from tissue; host or cells: isolated rat aorta; isolated rat stomach fundus
T1 sequence (P34978 1-341): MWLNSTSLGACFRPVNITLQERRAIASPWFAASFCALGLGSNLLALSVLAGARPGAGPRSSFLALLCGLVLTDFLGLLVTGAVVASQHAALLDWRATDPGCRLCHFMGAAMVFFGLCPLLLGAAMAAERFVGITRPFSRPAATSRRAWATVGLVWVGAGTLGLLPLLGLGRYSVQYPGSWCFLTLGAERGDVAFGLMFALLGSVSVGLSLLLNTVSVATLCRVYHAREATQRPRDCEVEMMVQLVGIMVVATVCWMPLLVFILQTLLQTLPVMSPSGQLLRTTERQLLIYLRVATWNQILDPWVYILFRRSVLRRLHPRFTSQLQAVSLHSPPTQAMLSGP
Text: (§1) Two tests on smooth musculature have allowed to confirm the antagonist potency on the TPτ thromboxan A2 receptors. Indeed, the capacity of the selected compounds during the binding to prevent the contraction of the rat fundus induced by I′U-46619 and to relax the rat aorta precontracted by this same stable agonist of the TXA2 have been evaluated;
Test desribed according to:
de Tullio P., Pirotte B., Lebrun P., Fontaine J., Dupont L., Antoine M. H., Ouedraogo R., Khelili S., Maggetto C., Masereel B., Diouf O., Podona T., Delarge J., 3-and -4-substituted 4H-pyrido[4,3-e]-1,2,4-thiadiazine 1,1-dioxides as potassium channels openers: synthesis pharmacological evaluation, and structure-activity relationships.—J. Med. Chem., 1996, 39, 937-948.

[2] = molecular target: T2, thromboxane A2 receptors (TPα) of human platelets (Homo sapiens, UniProt P21731); assay: Binding test: displacement of [3H]SQ-29.548 from human platelet thromboxane A2 receptors; settings: for inhibition at 1 µM: read-out: Affinity: percent of [3H]SQ-29.548 specifically substituted by the examined compound, compound 10^-6 M; for inhibition at 0.1 µM: read-out: Affinity: percent of [3H]SQ-29.548 specifically substituted by the examined compound, compound 10^-7 M
T2 construct: endogenous in cells; host or cells: human platelets
T2 sequence (P21731 1-343): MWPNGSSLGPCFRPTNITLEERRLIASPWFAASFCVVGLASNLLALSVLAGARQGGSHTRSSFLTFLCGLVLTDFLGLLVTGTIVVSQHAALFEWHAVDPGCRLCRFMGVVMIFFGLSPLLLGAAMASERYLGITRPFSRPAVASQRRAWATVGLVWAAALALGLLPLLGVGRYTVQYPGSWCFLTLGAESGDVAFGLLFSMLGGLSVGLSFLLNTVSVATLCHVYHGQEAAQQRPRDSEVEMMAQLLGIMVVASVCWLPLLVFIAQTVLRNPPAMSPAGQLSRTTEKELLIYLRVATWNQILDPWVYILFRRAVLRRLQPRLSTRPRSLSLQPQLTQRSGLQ
Text: To operate a first selection, the capacity of these compounds to displace in a specific way a tritium ligand, the [^3H]
Cozzi P., Giordani A., Menichincheri M., Pillan A., Pinciroli V., Rossi A., Tonani R., Volpi D., Tamburin M., Ferrario R., Fusar D., Salvati P.,—Agents combining thromboxane receptor antagonism with thromboxane synthase inhibition:[[[2-(1H-imidazol-1-yl)ethylidene]amino]oxy]alkanoic acids.—J. Med. Chem., 1994, 37, 3588-3604.

[3] = test system: Human Platelets aggregation; assay: Human platelet aggregation test induced by arachidonic acid or U-46619; type: cell-based
Text: The TXA2 antagonist potency of the selected compounds has been evaluated by a platelet aggregation test induced by the U-46619 (stable agonist of the thromboxan A2) or by the arachidonic acid.
Test described according to:
Born G.V.R., Cross M. J.,—The aggregation of blood platelets.—J. Physiol., 1963, 168, 178-195.
Tsuyoshi T., Masayuki Y., Shuichi W., Kazuhiro K., Takashi Y.,—Designe, synthesis, and pharmacology of 3-substituted sodium azulene—1 sulfonates and related compounds: Non-prostaboid thromboxane A2 receptor antagonists.—J. Med. Chem., 1993, 36, 791-800.

[4] = molecular target: T1, TPτ thromboxan A2 receptors; assay: Test for preventing the rat fundus contraction induced by U-46619; settings: contraction caused by 5 μg of U-46619; read-out: IC 50: concentration reducing of 50% of maximum contraction amplitude of rat fundus
Text: as §1
Test description according to:
Harris N., Greenberg R., Phillips M. B., Michel I. M., Goldenberg H. J., Haslanger M. F., Steinbacher T.E.,—Effects of SQ-27,427, a thromboxane A2 receptor antagonist, in the human platelet and isolated smooth muscle.—Eur. J. Pharmacol., 1984, 103, 9-18.

[5] = Platelet, aggregation induced by 30 nM of U-46619, read-out: IC 50 platelet aggregation, U-46.619
[6] = Platelet, aggregation induced by arachidonic acid, read-out: IC 50 platelet aggregation, ARACHIDONIC ACID

Row | SMILES | pIC50 [1] | pIC50 [2] | inhibition at 1 µM [2] [%] | inhibition at 0.1 µM [2] [%] | further results
1 | O=C(NC1CCCCC1)NS(=O)(=O)c1cc([N+](=O)[O-])ccc1NC1CCCCCC1 [Compound 22] | 7.42 | 7.38 | 100 | 84.1 | –
2 | O=C(NC1CCCCC1)NS(=O)(=O)c1cc([N+](=O)[O-])ccc1NC1CCCCC1 [Compound 17] | 8.86 | 7.64 | 100 | 88 | –
3 | O=C(O)CCC/C=C\CC1C2CCC(O2)C1CNNC(=O)Nc1ccccc1 (stereo not drawn) [SQ-29.548, acid [15-[1-alpha,2-beta (5Z),3-beta, 4-alpha]-7-[3-[[2-(phenylamino)carbonyl]hydrazin]methyl]-7-oxabicyclo[2.2.1]hept-2-yl]-5-heptenoic, reference compound] | 7.50 | – | – | – | pIC50 ([3]; aggregation induced by 30 nM of U-46619, read-out: IC 50 platelet aggregation, U-46.619): 7.47; pIC50 ([3]; aggregation induced by arachidonic acid, read-out: IC 50 platelet aggregation, ARACHIDONIC ACID): 7.46; pIC50 [4]: 6.74; Affinity: percent of [3H]SQ-29.548 specifically substituted by the examined compound, 10^-6M [2]: 100%; Affinity: percent of [3H]SQ-29.548 specifically substituted by the examined compound, 10^-7M ([2]; compound 10^-7 M): 72.0%
4 | CC(C)(C)NC(=O)NS(=O)(=O)c1cc([N+](=O)[O-])ccc1NC1CCCCC1 [Compound 29, N-[(2-cyclohexylamin-5-nitrobenzene)sulfonyl]N′-tert-butyl urea] | 7.69 | 8.11 | 97.4 | 95.4 | –
5 | O=[N+]([O-])c1ccc(NC2CCCCCC2)c(S(=O)(=O)NC(=S)NC2CCCCC2)c1 [Compound 40, N-[(2-cycloheptylamin-5-nitrobenzene)sulfonyl]N′-cyclohexyl thiourea] | 7.75 | 7.57 | 94.4 | 63 | –
6 | O=C(O)COc1ccc(CCNS(=O)(=O)c2ccccc2)cc1 [SULOTROBAN, sulotroban, reference compound] | 5.80 | – | 55.6 | 16.5 | pIC50 [3, 5]: 4.98; pIC50 [3, 6]: 4.93; pIC50 [4]: 6.08
7 | CCCNC(=O)NS(=O)(=O)c1cc([N+](=O)[O-])ccc1NC1CCCCC1 [Compound 81] | – | 7.24 | 93.3 | 65 | –
8 | CC(C)NC(=O)NS(=O)(=O)c1cc([N+](=O)[O-])ccc1NC1CC2CCC1C2 (stereo not drawn) [Compound 54] | – | – | – | – | Affinity: percent of [3H]SQ-29.548 specifically substituted by the examined compound, 10^-6M [2]: 91.7%
9 | CCCCCNC(=O)NS(=O)(=O)c1cc([N+](=O)[O-])ccc1Nc1ccccc1C [Compound 94] | – | – | – | – | Affinity: percent of [3H]SQ-29.548 specifically substituted by the examined compound, 10^-6M [2]: 98.4%; pIC50 ([2]; read-out: IC 50: concentration required for replacing 50% of [3H]SQ-29.548 bound to receptors TPα): 8.55

Second part, led by results:

Row | pIC50 [1] | pIC50 [2] | inhibition at 1 µM [2] [%] | inhibition at 0.1 µM [2] [%] | SMILES | further results
10 | 7.71 | 7.98 | 100 | 95.2 | CC(C)(C)NC(=O)NS(=O)(=O)c1cc([N+](=O)[O-])ccc1NC1CCCCCC1 [Compound 25] | –
11 | 8.92 | 7.62 | 100 | 88.9 | Cc1cccc(Nc2ccc([N+](=O)[O-])cc2S(=O)(=O)NC(=NC#N)N2CCCCCC2)c1 [Compound 18, N-cyano-N′-[(2-metatoluylamin-5-nitrobenzene)sulfonyl]homopiperidinoamidine] | pIC50 [3, 5]: 6.32; pIC50 [3, 6]: 6.44; pIC50 [4]: 7.15
